For orientation: EC50 means the concentration needed to bring the measured effect to its halfway point. A higher EC50 goes with lower potency in that assay. As usually defined, the IC50 is the concentration that gives 50% inhibition. High values mean lower potency, low ones higher potency.

Experiment [1] addresses RDLbdI/V (Drosophila melanogaster, UniProt P25123, I283V). Briefly: cell-based.
Experiment [2] concerns the target RDLbdI/VA^301S (Drosophila melanogaster, UniProt P25123, A301S/I283V). Briefly: cell-based.

Chain of RDLbdI/V (P25123 45-606 I283V): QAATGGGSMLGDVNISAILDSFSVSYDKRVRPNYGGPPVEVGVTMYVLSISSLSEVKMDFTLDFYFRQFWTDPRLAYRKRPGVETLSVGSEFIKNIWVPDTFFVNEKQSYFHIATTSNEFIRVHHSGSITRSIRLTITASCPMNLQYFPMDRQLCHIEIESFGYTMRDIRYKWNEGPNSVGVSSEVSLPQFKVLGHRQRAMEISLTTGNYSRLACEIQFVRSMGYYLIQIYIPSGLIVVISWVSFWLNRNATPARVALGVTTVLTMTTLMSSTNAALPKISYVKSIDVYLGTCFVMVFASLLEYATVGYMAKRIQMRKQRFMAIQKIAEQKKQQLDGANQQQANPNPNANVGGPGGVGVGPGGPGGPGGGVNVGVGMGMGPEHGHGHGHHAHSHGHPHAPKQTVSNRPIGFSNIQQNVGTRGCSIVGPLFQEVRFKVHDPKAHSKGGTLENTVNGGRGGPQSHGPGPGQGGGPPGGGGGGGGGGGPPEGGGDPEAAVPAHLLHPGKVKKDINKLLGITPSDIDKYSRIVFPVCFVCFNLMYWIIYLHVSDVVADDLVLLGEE
Chain of RDLbdI/VA^301S (P25123 45-606 I283V/A301S): as the sequence (P25123 45-606 I283V) above, with A257S counted along it

Take `NCCC(=O)O` [β-alanine]: the EC50 in experiment [1] was 3090 µM. For `CC[C@H](C)[C@H]1O[C@]2(CC[C@@H]1C)C[C@@H]1C[C@@H](C/C=C(\C)[C@@H](O[C@H]3C[C@H](OC)[C@@H](O[C@H]4C[C@H](OC)[C@@H](O)[C@H](C)O4)[C@H](C)O3)[C@@H](C)/C=C/C=C3\CO[C@@H]4[C@H](O)C(C)=C[C@@H](C(=O)O1)[C@]34O)O2` [IVM, ivermectin], the IC50 in experiment [1] is 0.468 µM; in experiment [2], 1.2 µM. `NC/C=C/C(=O)O` [TACA, trans-4-aminocrotonic acid]: in experiment [1], the EC50 was 263 µM. Same read-out and setting: next, `NCc1cc(=O)[nH]o1` [muscimol]: 95.5 µM.

For the origin of these results see PMC4019635 (PLoS ONE, 2014).
